In this assay the target is Casein kinase I isoform gamma-1 (Homo sapiens) (UniProt Q9HCP0). The assay is described as follows: CSNK1G1 binders by thermal stabilization, biophysical, DSF, SYPRO orange, recombinant protein (AID 513). Conditions: at 10 µM, protein 2 µM, hits give high values.
Sequence of Casein kinase I isoform gamma-1 (Homo sapiens) (Q9HCP0 whole entry, looked up, canonical isoform): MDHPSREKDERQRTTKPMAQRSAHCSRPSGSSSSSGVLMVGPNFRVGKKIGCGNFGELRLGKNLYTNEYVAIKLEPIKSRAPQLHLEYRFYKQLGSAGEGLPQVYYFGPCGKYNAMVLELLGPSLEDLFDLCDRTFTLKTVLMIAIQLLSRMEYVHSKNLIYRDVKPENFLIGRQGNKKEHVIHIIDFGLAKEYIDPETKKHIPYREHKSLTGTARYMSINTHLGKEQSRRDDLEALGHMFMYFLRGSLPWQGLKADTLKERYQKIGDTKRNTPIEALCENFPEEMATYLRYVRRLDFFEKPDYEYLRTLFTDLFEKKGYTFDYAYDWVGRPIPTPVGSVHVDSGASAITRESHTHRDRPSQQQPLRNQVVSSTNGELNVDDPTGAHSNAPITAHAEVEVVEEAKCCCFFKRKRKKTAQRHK
Consider `Clc1ccc(Nc2ncc(-c3cn[nH]c3)n3ccnc23)cc1`, for which the Tm shift is 3.6 Celsius. Take `NC1=N/C(=C2/CCNC(=O)c3[nH]c(Br)cc32)C(=O)N1`: the Tm shift is 5.7 Celsius. For `NC1=N/C(=C2\CCNC(=O)c3[nH]ccc32)C(=O)N1` the value was 3.6 Celsius; for `COc1ccc(Nc2nc(N)c(C(=O)c3ccc(Cl)cc3)s2)cc1`, 4.1 Celsius; for `Nc1nc(Nc2ccccc2F)sc1C(=O)c1ccc(Br)cc1`, 3.9 Celsius. For `N#C/C(=C1\Nc2ccccc2S1)c1ccnc(NCCc2cccnc2)n1` the value was 3.7 Celsius. As for `O=c1[nH]c(O)c2c1c1c3ccccc3nc1n1cncc21`, the Tm shift was 4.3 Celsius. As for `CSc1nc(-c2ccnc(NC(C)c3ccccc3)c2)c(-c2ccc(F)cc2)[nH]1` (configuration not stated), the Tm shift was 3.6 Celsius. For `CCn1cnc2c(Nc3cccc(Cl)c3)nc(N[C@@H]3CCCC[C@@H]3N)nc21` the value was 5.8 Celsius; for `COc1ccc(Nc2nc(N)c(C(=O)c3ccc(OC)cc3)s2)cc1`, 5.6 Celsius; for `O=Nc1c(-c2c(O)[nH]c3cc(Br)ccc23)[nH]c2ccccc12`, 3.5 Celsius. For `O=Nc1c(-c2c(O)[nH]c3ccc(S(O)(O)O)cc23)[nH]c2ccccc12` the value was 4 Celsius; for `Nc1nc(Nc2ccc(F)cc2)sc1C(=O)c1ccccc1`, 4.1 Celsius. On to `CC(C)n1cnc2c(Nc3cccc(Cl)c3)nc(NCCO)nc21`, for which the Tm shift is 6.1 Celsius. Regarding `Oc1ccc(Nc2nccn3c(-c4cn[nH]c4)cnc23)cc1`, the Tm shift was 3.2 Celsius. With `CCN(CC)CCNC(=O)c1c(C)[nH]c(/C=C2\C(=O)Nc3ccc(Cl)cc32)c1C`, the Tm shift was 4.3 Celsius.

On to `Cc1cc(Nc2nc(-c3ccccc3)nc3ccccc23)n[nH]1`, for which the Tm shift is 3.3 Celsius. Turning to `O=c1c(O)c(-c2ccc(O)c(O)c2)oc2cc(O)cc(O)c12`, the Tm shift is 3.2 Celsius. Consider `NC(=O)c1ccc(-c2nc(-c3ccc4c(c3)OCCO4)c(-c3ccccn3)[nH]2)cc1`, for which the Tm shift is 6.1 Celsius. For `Nc1nc(Nc2cccc(Cl)c2)sc1C(=O)c1ccc(F)cc1` the value was 5.3 Celsius; for `COc1cc(/C=C/C(=O)CC(=O)/C=C/c2ccc(O)c(OC)c2)ccc1O`, 4.5 Celsius. On to `Nc1nc(Nc2ccccc2)sc1C(=O)c1ccc(F)cc1`, for which the Tm shift was 3.9 Celsius.

The values above are taken from PubChem BioAssay AID513 (SGCOxCompounds, 2006).
